The values below come from the supplement of paper PMC10307832.

What all share (assay): relative viability (nuclei count vs DMSO), 5 days (fraction); higher = more cells survive
Compound in experiment [1]: CN[C@@H]1C[C@H]2O[C@@](C)([C@@H]1OC)n1c3ccccc3c3c4c(c5c6ccccc6n2c5c31)C(=O)NC4 [Staurosporine] + C[C@]1(O)C[C@@H](c2nc(-c3ccc4ccc(-c5ccccc5)nc4c3)c3c(N)nccn32)C1 [Linsitinib] (partner 1 µM)
The essentials: (§1)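 Lung cancer cell lines in 1536-well plates were dosed by pin tool the day after seeding, either with one drug alone or with a fixed anchor-drug dose plus five library-drug doses (not always all listed) in √10 steps. After 5 days, cells were fixed and their nuclei stained in one step (final 0.05% Triton X-100, 1% formaldehyde, 1 ug/ml Hoechst), then counted on 4× images. Relative viability is the nuclei count in treated wells divided by that in vehicle wells. Values are medians of duplicate plates.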

Compound in experiment [2]: CC1=C(CC(=O)O)c2cc(F)ccc2/C1=C\c1ccc([S+](C)[O-])cc1 [Sulindac] + CC(C)C[C@H](NC(=O)[C@H](Cc1ccccc1)NC(=O)c1cnccn1)B(O)O [Bortezomib] (partner 0.002 µM)
The essentials:
as §1

Compound in experiment [3]: O=c1[nH]cc(F)c(=O)[nH]1 [5-Fluorouracil] + COc1cccc2cc(-c3nc([C@H]4CC[C@H](C(=O)O)CC4)n4ncnc(N)c34)[nH]c12 [OSI-027] (partner 0.5 µM)
The essentials: as §1

Compound in experiment [4]: CC1=C(CC(=O)O)c2cc(F)ccc2/C1=C\c1ccc([S+](C)[O-])cc1 [Sulindac] + CC(=O)c1c(C)c2cnc(Nc3ccc(N4CCNCC4)cn3)nc2n(C2CCCC2)c1=O [Palbociclib] (partner 0.5 µM)
The essentials:
as §1

Turning to NCI-H1299, the relative viability was found to be 0.785 in experiment [1] (first compound 0.005 µM); 0.305 in experiment [1] (first compound 0.01581 µM); 0.206 in experiment [1] (first compound 0.05 µM); 0.143 in experiment [1] (first compound 0.1581 µM); 0.113 in experiment [1] (first compound 0.5 µM); 1.09 in experiment [2] (first compound 0.08 µM). Further, the relative viability was found to be 1.04 in experiment [2] (first compound 0.253 µM), 1.04 in experiment [2] (first compound 0.8 µM), 1.03 in experiment [2] (first compound 2.53 µM) and 1.05 in experiment [2] (first compound 8 µM).

Turning to NCI-H1395, the relative viability is 0.947 in experiment [1] (first compound 0.005 µM); 0.427 in experiment [1] (first compound 0.01581 µM); 0.381 in experiment [1] (first compound 0.05 µM); 0.377 in experiment [1] (first compound 0.1581 µM); 0.289 in experiment [1] (first compound 0.5 µM); 0.505 in experiment [3] (first compound 0.02 µM). In addition, the relative viability was 0.738 in experiment [3] (first compound 0.2 µM); 0.579 in experiment [3] (first compound 0.6325 µM); 0.684 in experiment [3] (first compound 2 µM); 0.545 in experiment [4] (first compound 0.08 µM); 0.563 in experiment [4] (first compound 0.253 µM); 0.708 in experiment [4] (first compound 0.8 µM). Also, the figures for the relative viability in experiment [4] (first compound 2.53 µM) and in experiment [4] (first compound 8 µM) were 0.627 and 0.728, respectively.

On to NCI-H1563, for which the relative viability was found to be 0.752 in experiment [1] (first compound 0.005 µM); 0.611 in experiment [1] (first compound 0.01581 µM); 0.733 in experiment [1] (first compound 0.05 µM); 0.654 in experiment [1] (first compound 0.1581 µM); 0.478 in experiment [1] (first compound 0.5 µM); 0.679 in experiment [3] (first compound 0.02 µM). In addition, the relative viability in experiment [3] (first compound 0.2 µM) was determined as 0.791; in experiment [3] (first compound 0.6325 µM), 0.7; in experiment [3] (first compound 2 µM), 0.696; in experiment [2] (first compound 0.08 µM) it was 0.848; in experiment [2] (first compound 0.253 µM), 0.876; in experiment [2] (first compound 0.8 µM), 0.793. In addition, the relative viability in experiment [2] (first compound 2.53 µM) worked out at 0.779; in experiment [2] (first compound 8 µM), 0.925.

As to NCI-H1623, the relative viability in experiment [3] (first compound 0.02 µM) is 0.384; in experiment [3] (first compound 0.2 µM), 0.339; in experiment [3] (first compound 0.6325 µM), 0.339; in experiment [3] (first compound 2 µM) it was 0.323.

In the case of NCI-H1648, the relative viability in experiment [3] (first compound 0.02 µM) came out at 0.246; in experiment [3] (first compound 0.2 µM), 0.269; in experiment [3] (first compound 0.6325 µM), 0.264; in experiment [3] (first compound 2 µM) it was 0.245; in experiment [4] (first compound 0.08 µM) it was 0.275; in experiment [4] (first compound 0.253 µM) it was 0.268. For the same cell line, the values for the relative viability in experiment [4] (first compound 2.53 µM) and in experiment [4] (first compound 8 µM) were 0.242 and 0.282, respectively.

Take NCI-H1650: the relative viability in experiment [3] (first compound 0.02 µM) worked out at 0.515; in experiment [3] (first compound 0.2 µM), 0.496; in experiment [3] (first compound 0.6325 µM), 0.383; in experiment [3] (first compound 2 µM) it was 0.349; in experiment [4] (first compound 0.08 µM), 0.271; in experiment [4] (first compound 0.253 µM) it was 0.331. The relative viability was 0.341 in experiment [4] (first compound 0.8 µM); 0.346 in experiment [4] (first compound 2.53 µM); 0.315 in experiment [4] (first compound 8 µM); 0.31 in experiment [2] (first compound 0.08 µM); 0.193 in experiment [2] (first compound 0.253 µM); 0.224 in experiment [2] (first compound 0.8 µM). Further, the relative viability is 0.204 in experiment [2] (first compound 2.53 µM) and 0.213 in experiment [2] (first compound 8 µM).

On to NCI-H1703, for which the relative viability in experiment [1] (first compound 0.005 µM) turned out to be 0.561; in experiment [1] (first compound 0.01581 µM), 0.291; in experiment [1] (first compound 0.05 µM), 0.17; in experiment [1] (first compound 0.1581 µM), 0.146; in experiment [1] (first compound 0.5 µM), 0.083; in experiment [2] (first compound 0.08 µM), 0.303. Further, the relative viability in experiment [2] (first compound 0.253 µM) came out at 0.394; in experiment [2] (first compound 0.8 µM), 0.225; in experiment [2] (first compound 2.53 µM) it was 0.457; in experiment [2] (first compound 8 µM) it was 0.284.

In the case of NCI-H1793, the relative viability in experiment [1] (first compound 0.005 µM) amounted to 0.879; in experiment [1] (first compound 0.01581 µM), 0.558; in experiment [1] (first compound 0.05 µM), 0.582; in experiment [1] (first compound 0.1581 µM), 0.465; in experiment [1] (first compound 0.5 µM), 0.209; in experiment [3] (first compound 0.02 µM), 0.283. For the same cell line, the relative viability in experiment [3] (first compound 0.2 µM) was determined as 0.369; in experiment [3] (first compound 0.6325 µM), 0.303; in experiment [3] (first compound 2 µM), 0.207; in experiment [4] (first compound 0.08 µM), 0.301; in experiment [4] (first compound 0.253 µM) it was 0.375; in experiment [4] (first compound 2.53 µM), 0.34. For the same cell line, the relative viability in experiment [4] (first compound 8 µM) was 0.364.

Take NCI-H1944: the relative viability turned out to be 1.39 in experiment [1] (first compound 0.005 µM); 0.696 in experiment [1] (first compound 0.05 µM); 0.472 in experiment [1] (first compound 0.1581 µM); 0.367 in experiment [1] (first compound 0.5 µM); 0.48 in experiment [3] (first compound 0.02 µM); 0.423 in experiment [3] (first compound 0.2 µM). The relative viability in experiment [3] (first compound 0.6325 µM) came to 0.296; in experiment [3] (first compound 2 µM), 0.188; in experiment [4] (first compound 0.08 µM), 0.363; in experiment [4] (first compound 0.253 µM) it was 0.333; in experiment [4] (first compound 0.8 µM), 0.338; in experiment [4] (first compound 2.53 µM) it was 0.351. For the same cell line, the relative viability in experiment [4] (first compound 8 µM) came out at 0.374.

For the cell line NCI-H2170, the relative viability in experiment [3] (first compound 0.02 µM) came out at 0.681; in experiment [3] (first compound 0.2 µM) it was 0.594; in experiment [3] (first compound 0.6325 µM) it was 0.459; in experiment [3] (first compound 2 µM), 0.37; in experiment [4] (first compound 0.08 µM) it was 0.482; in experiment [4] (first compound 0.253 µM), 0.402. The relative viability is 0.413 in experiment [4] (first compound 0.8 µM), 0.427 in experiment [4] (first compound 2.53 µM) and 0.38 in experiment [4] (first compound 8 µM).

Consider NCI-H2342, for which the relative viability in experiment [3] (first compound 0.02 µM) worked out at 0.698; in experiment [3] (first compound 0.2 µM) it was 0.731; in experiment [3] (first compound 0.6325 µM), 0.735; in experiment [3] (first compound 2 µM) it was 0.638; in experiment [4] (first compound 0.08 µM) it was 0.466; in experiment [4] (first compound 0.253 µM), 0.482. The values for the relative viability in experiment [4] (first compound 0.8 µM), in experiment [4] (first compound 2.53 µM) and in experiment [4] (first compound 8 µM) were 0.536, 0.481 and 0.56, respectively.

Consider SK-MES-1, for which the relative viability in experiment [1] (first compound 0.005 µM) was 0.836; in experiment [1] (first compound 0.01581 µM), 0.403; in experiment [1] (first compound 0.05 µM) it was 0.318; in experiment [1] (first compound 0.1581 µM), 0.267; in experiment [1] (first compound 0.5 µM), 0.153; in experiment [3] (first compound 0.02 µM) it was 0.577. The relative viability was 0.367 in experiment [3] (first compound 0.2 µM); 0.253 in experiment [3] (first compound 0.6325 µM); 0.196 in experiment [3] (first compound 2 µM); 0.313 in experiment [4] (first compound 0.08 µM); 0.364 in experiment [4] (first compound 0.253 µM); 0.353 in experiment [4] (first compound 0.8 µM). For the same cell line, the relative viability in experiment [4] (first compound 2.53 µM) is 0.373; in experiment [4] (first compound 8 µM), 0.315.

Take SW 900: the relative viability in experiment [3] (first compound 0.02 µM) worked out at 0.505; in experiment [3] (first compound 0.2 µM), 0.501; in experiment [3] (first compound 0.6325 µM), 0.44; in experiment [3] (first compound 2 µM), 0.423; in experiment [4] (first compound 0.08 µM) it was 0.479; in experiment [4] (first compound 0.253 µM), 0.584. Further, the relative viability in experiment [4] (first compound 8 µM) amounted to 0.496.
